Results reported in US20250034216A1, “STEREOSELECTIVE COVALENT LIGANDS FOR ONCOGENIC AND IMMUNOLOGICAL PROTEINS” (The Scripps Research Institute, priority 2021, published 2025).

Experiments:
CEP128_C915 = target: T1, CEP128_C915 (Homo sapiens, UniProt Q6ZU80); assay: IA-DTB cysteine engagement; format: binding; conditions: 22Rv1 cells, 20 μM probe, 1 h, relative to DMSO
T1 construct: endogenous in cells; host or cells: 22Rv1
T1 sequence (Q6ZU80 1-1094): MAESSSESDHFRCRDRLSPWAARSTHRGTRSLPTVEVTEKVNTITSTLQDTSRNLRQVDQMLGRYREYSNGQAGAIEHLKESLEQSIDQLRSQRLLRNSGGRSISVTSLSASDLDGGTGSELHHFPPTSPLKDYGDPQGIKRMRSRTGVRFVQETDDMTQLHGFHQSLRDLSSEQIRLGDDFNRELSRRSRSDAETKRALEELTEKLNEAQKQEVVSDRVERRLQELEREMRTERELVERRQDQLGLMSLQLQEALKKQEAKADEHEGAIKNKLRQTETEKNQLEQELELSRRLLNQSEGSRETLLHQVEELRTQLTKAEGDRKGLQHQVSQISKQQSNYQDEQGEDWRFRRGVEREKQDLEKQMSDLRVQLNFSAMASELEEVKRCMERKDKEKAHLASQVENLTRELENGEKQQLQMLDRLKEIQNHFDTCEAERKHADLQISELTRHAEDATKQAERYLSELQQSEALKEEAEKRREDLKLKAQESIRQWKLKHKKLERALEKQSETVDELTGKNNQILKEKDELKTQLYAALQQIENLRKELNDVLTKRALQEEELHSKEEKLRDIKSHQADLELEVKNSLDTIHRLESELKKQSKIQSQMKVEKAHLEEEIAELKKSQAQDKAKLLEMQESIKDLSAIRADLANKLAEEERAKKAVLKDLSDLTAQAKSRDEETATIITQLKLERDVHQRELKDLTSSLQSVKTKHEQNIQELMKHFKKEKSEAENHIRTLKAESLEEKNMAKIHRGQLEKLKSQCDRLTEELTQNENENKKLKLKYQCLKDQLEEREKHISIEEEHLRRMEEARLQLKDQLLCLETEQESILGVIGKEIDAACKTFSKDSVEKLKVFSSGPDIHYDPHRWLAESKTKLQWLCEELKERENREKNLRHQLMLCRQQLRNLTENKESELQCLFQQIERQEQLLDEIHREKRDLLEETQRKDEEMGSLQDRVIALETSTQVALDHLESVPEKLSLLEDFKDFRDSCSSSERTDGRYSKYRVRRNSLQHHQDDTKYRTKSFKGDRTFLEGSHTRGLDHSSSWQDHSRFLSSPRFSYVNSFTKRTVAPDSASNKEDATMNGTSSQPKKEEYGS
How it was run: (§1)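 Probe-exposed cells were lysed, IA-DTB-labeled, trypsinized and streptavidin-enriched. Multiplexed TMT quantitation gave engagement ratios versus DMSO, with non-tryptic peptides excluded and intensities normalized to median summed signal.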

PTGR1_C239 = target: T2, PTGR1_C239 (Homo sapiens, UniProt Q14914); assay: IA-DTB cysteine engagement; format: binding; conditions: 22Rv1 cells, relative to DMSO; for % engagement PTGR1_C239: 20 μM probe, 1 h; for % engagement PTGR1_239: 5 μM probe, 1 h (FIG. 5B)
T2 construct: endogenous in cells; host or cells: 22Rv1
T2 sequence (Q14914 whole entry): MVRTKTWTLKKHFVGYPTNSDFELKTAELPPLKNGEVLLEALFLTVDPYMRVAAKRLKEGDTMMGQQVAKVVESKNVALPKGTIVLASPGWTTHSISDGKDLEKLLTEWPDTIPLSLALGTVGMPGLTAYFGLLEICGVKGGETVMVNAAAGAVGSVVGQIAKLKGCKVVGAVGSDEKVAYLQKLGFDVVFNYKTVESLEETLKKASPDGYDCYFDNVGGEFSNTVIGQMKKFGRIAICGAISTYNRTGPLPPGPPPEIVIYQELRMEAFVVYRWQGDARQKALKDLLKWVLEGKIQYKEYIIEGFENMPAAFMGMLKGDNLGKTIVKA
How it was run: as §1

Row | SMILES | % engagement CEP128_C915 (CEP128_C915) [%] | % engagement PTGR1_C239 (PTGR1_C239) [%] | % engagement PTGR1_239 (PTGR1_C239) [%]
1 | C=CC(=O)N1C[C@@H](c2ccc(Br)cc2)[C@H]1C(=O)Nc1cccc2cccnc12 [MY-1A, (2S,3R)-1-acryloyl-3-(4-bromophenyl)-N-(quinolin-8-yl)azetidine-2-carboxamide] | −13 | 75 | –
2 | C=CC(=O)N1C[C@H](c2ccc(Br)cc2)[C@@H]1C(=O)Nc1cccc2cccnc12 [MY-1B, (2R,3S)-1-acryloyl-3-(4-bromophenyl)-N-(quinolin-8-yl)azetidine-2-carboxamide] | 67.5 | 79 | 81.33
3 | C=CC(=O)N1C[C@H](c2ccc(Br)cc2)[C@H]1C(=O)Nc1cccc2cccnc12 [MY-3A, (2S,3S)-1-acryloyl-3-(4-bromophenyl)-N-(quinolin-8-yl)azetidine-2-carboxamide] | 7 | −4 | –

Next, values leading:

Row | % engagement CEP128_C915 (CEP128_C915) [%] | % engagement PTGR1_C239 (PTGR1_C239) [%] | % engagement PTGR1_239 (PTGR1_C239) [%] | SMILES
4 | 25 | −16.5 | – | C=CC(=O)N1C[C@H](c2ccc(Br)cc2)[C@H]1C(=O)Nc1cccc2cccnc12 [MY-3B, (2S,3S)-1-acryloyl-3-(4-bromophenyl)-N-(quinolin-8-yl)azetidine-2-carboxamide]
5 | – | – | −4.50 | CC#CC(=O)N1C[C@H](c2ccc(Br)cc2)[C@@H]1C(=O)Nc1cccc2cccnc12 [MY-45B, (2R,3S)-3-(4-bromophenyl)-1-(but-2-ynoyl)-N-(quinolin-8-yl)azetidine-2-carboxamide]
